Results: patent US9868738B2, “Diazine-fused amidines as BACE inhibitors, compositions, and their use” (Merck Sharp & Dohme Corp., priority 2014, dated 2018)

Assays:
[1] = target: soluble human BACE1 catalytic domain (Homo sapiens (Human), UniProt P56817); assay: BACE-1 Ki Assay (BACE-1 HTRF FRET Assay); type: biochemical; conditions: Ki calculated from IC50 using the Cheng-Prusoff equation; QSY7-APPswe-Eu substrate 200 nM, pH 5.0
Experimental: In another embodiment, the compounds of the invention comprise the example compounds shown in the table below, or a tautomer thereof, or a pharmaceutically acceptable salt of said compound or said tautomer. Examples 2 to 42 were prepared using the method similar to Ex. 1. Example 44 to 51 were synthesized using the method similar to Ex. 43. BACE-1 values reported in this table were measured using BACE-1 Ki Assay (BACE-1 HTRF FRET Assay).
• Reagents: Na^+-Acetate pH 5.0; 1% Brij-35; Glycerol; Dimethyl Sulfoxide (DMSO); Recombinant human soluble BACE1 catalytic domain (>95% pure); APP Swedish mutant peptide substrate (QSY7-APP^swe-Eu): QSY7-EISEVNLDAEFC-Europium-amide.
A homogeneous time-resolved FRET assay can be used to determine IC50 values for inhibitors of the soluble human BACE1 catalytic domain. This assay monitors the increase of 620 nm fluorescence that resulted from BACE1 cleavage of an APPswedish APP^swe mutant peptide FRET substrate (QSY7-EISEVNLDAEFC-Europium-amide). This substrate contains an N-terminal QSY7 moiety that serves as a quencher of the C-terminal Europium fluorophore (620 nm Em). In the absence of enzyme activity, 620 nm fluorescence is low in the assay and increased linearly over 3 hours in the presence of uninhibited BACE1 enzyme. Inhibition of BACE1 cleavage of the QSY7-APP^swe-Eu substrate by inhibitors is manifested as a suppression of 620 nm fluorescence.
Varying concentrations of inhibitors at 3× the final desired concentration in a volume of 10 ul are preincubated with purified human BACE1 catalytic domain (3 nM in 10 μl) for 30 minutes at 30° C. in reaction buffer containing 20 mM Na-Acetate pH 5.0, 10% glycerol, 0.1% Brij-35 and 7.5% DSMO. Reactions are initiated by addition of 10 μl of 600 nM QSY7-APP^swe-Eu substrate (200 nM final) to give a final reaction volume of 30 μl in a 384 well Nunc HTRF plate. The reactions are incubated at 30° C. for 1.5 hours. The 620 nm fluorescence is then read on a Rubystar HTRF plate reader (BMG Labtechnologies) using a 50 millisecond delay followed by a 400 millisecond acquisition time window. Inhibitor IC50 values are derived from non-linear regression analysis of concentration response curves. Ki values are then calculated from IC50 values using the Cheng-Prusoff equation using a previously determined […] of 8 μM for the QSY7-APP^swe-Eu substrate at BACE1.

[2] = target: purified human autoBACE-2 (Homo sapiens (Human), UniProt Q9Y5Z0); assay: BACE-2 Assay (BACE-HTRF assay); type: biochemical; conditions: Ki calculated from IC50 using the Cheng-Prusoff equation; QSY7-EISEVNLDAEFC-Eu-amide substrate 200 nM, pH 5.0
Experimental: Inhibitor IC50s at purified human autoBACE-2 are determined in a time-resolved endpoint proteolysis assay that measures hydrolysis of the QSY7-EISEVNLDAEFC-Eu-amide FRET peptide substrate (BACE-HTRF assay). BACE-mediated hydrolysis of this peptide results in an increase in relative fluorescence (RFU) at 620 nm after excitation with 320 nm light. Inhibitor compounds, prepared at 3× the desired final concentration in 1×BACE assay buffer (20 mM sodium acetate pH 5.0, 10% glycerol, 0.1% Brij-35) supplemented with 7.5% DMSO are pre-incubated with an equal volume of autoBACE-2 enzyme diluted in 1×BACE assay buffer (final enzyme concentration 1 nM) in black 384-well NUNC plates for 30 minutes at 30° C. […] DMSO is present at […] final concentration in the assay. Following laser excitation of sample wells at 320 nm, the fluorescence signal at 620 nm is collected for 400 ms following a 50 μs delay on a RUBYstar HTRF plate reader (BMG Labtechnologies). Raw RFU data is normalized to maximum (1.0 nM BACE/DMSO) and minimum (no enzyme/DMSO) RFU values. IC50s are determined by nonlinear regression analysis (sigmoidal dose response, variable slope) of percent inhibition data with minimum and maximum values set to 0 and 100 percent respectively. Similar IC50s are obtained when using raw RFU data. The Ki values are calculated from the IC50 using the Cheng-Prusoff equation.

Chain of purified human autoBACE-2 (Q9Y5Z0 63-473 limits assumed): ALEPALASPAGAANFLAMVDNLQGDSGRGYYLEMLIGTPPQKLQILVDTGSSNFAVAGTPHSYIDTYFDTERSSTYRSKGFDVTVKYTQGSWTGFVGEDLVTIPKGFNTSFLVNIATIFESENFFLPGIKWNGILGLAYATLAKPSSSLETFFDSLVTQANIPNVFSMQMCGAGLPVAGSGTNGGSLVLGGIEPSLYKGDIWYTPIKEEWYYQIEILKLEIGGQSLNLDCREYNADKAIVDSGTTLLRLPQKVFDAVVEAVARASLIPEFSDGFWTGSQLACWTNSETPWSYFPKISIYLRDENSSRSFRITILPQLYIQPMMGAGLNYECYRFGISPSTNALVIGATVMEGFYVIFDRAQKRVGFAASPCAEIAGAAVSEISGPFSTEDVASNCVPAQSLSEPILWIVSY
Chain of soluble human BACE1 catalytic domain (P56817 75-416): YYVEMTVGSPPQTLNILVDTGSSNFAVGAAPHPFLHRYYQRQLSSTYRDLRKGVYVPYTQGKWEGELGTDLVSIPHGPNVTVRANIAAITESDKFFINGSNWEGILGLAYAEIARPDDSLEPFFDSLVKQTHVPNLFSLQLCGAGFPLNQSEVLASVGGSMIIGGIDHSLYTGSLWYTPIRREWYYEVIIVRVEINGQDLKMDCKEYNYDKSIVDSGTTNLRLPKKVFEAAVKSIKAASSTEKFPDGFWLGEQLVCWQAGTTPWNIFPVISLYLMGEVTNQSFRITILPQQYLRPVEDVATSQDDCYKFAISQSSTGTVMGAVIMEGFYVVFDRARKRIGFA

Row | Ki [1] [nM] | Ki [2] [nM] | SMILES
1 | 16.8 | 4.5 | Cc1ncc2c(n1)C[C@@](C)(c1cc(NC(=O)c3ccc(F)cn3)ccc1F)NC2=N [Example 44, 5-fluoro-N-{4-fluoro-3-[(7S)-5-imino-2,7-dimethyl-5,6,7,8-tetrahydropyrido[4,3-d]pyrimidin-7-yl]phenyl}pyridine-2-carboxamide]
2 | 36.4 | 16.7 | C[C@@]1(c2sc(-c3ccc(F)c(C#N)c3)cc2Cl)Cc2ncncc2C(=N)N1 [Example 16, 5-{4-chloro-5-[(7S)-5-imino-7-methyl-5,6,7,8-tetrahydropyrido[4,3-d]pyrimidin-7-yl]thiophen-2-yl}-2-fluorobenzonitrile]
3 | 18.1 | 48.3 | Cc1ncc2c(n1)C[C@@](C)(c1cc(NC(=O)c3ccc(C(F)(F)F)cn3)ccc1F)NC2=N [Example 46, N-{4-fluoro-3-[(7S)-5-imino-2,7-dimethyl-5,6,7,8-tetrahydropyrido[4,3-d]pyrimidin-7-yl]phenyl}-5-(trifluoromethyl)pyridine-2-carboxamide]
4 | 16.6 | 24.4 | Cc1ncc2c(n1)C[C@@](C)(c1sc(-c3cc(F)cc(-c4nnco4)c3)cc1Cl)NC2=N [Example 28, (7S)-7-{3-chloro-5-[3-fluoro-5-(1,3,4-oxadiazol-2-yl)phenyl]thiophen-2-yl}-2,7-dimethyl-7,8-dihydropyrido[4,3-d]pyrimidin-5(6H)-imine]
5 | 94.7 | 44.2 | C[C@@]1(c2sc(-c3cncc(C#N)c3)cc2Cl)Cc2nc(C3CC3)ncc2C(=N)N1 [Example 37, 5-{4-chloro-5-[(7S)-2-cyclopropyl-5-imino-7-methyl-5,6,7,8-tetrahydropyrido[4,3-d]pyrimidin-7-yl]thiophen-2-yl}pyridine-3-carbonitrile]
6 | 52.7 | 28 | Cc1ncc2c(n1)C[C@@](C)(c1sc(-c3cccc(C#N)c3)cc1Cl)NC2=N [Example 24, 3-{4-chloro-5-[(7S)-5-imino-2,7-dimethyl-5,6,7,8-tetrahydropyrido[4,3-d]pyrimidin-7-yl]thiophen-2-yl}benzonitrile]
7 | 208 | 97.7 | C[C@@]1(c2cc(-c3cncc(C#N)c3)cs2)Cc2nc(C(F)(F)F)ncc2C(=N)N1 [Example 41, 5-{5-[(7S)-5-imino-7-methyl-2-(trifluoromethyl)-5,6,7,8-tetrahydropyrido[4,3-d]pyrimidin-7-yl]thiophen-3-yl}pyridine-3-carbonitrile]
8 | 13.1 | 3 | C[C@@]1(c2cc(NC(=O)c3ccc(F)cn3)ccc2F)Cc2nc(C3CC3)ncc2C(=N)N1 [Example 48, N-{3-[(7S)-2-cyclopropyl-5-imino-7-methyl-5,6,7,8-tetrahydropyrido[4,3-d]pyrimidin-7-yl]-4-fluorophenyl}-5-fluoropyridine-2-carboxamide]
9 | 52.1 | 28.3 | Cc1ncc2c(n1)C[C@@](C)(c1sc(-c3ccc(F)c(C#N)c3)cc1Cl)NC2=N [Example 27, 5-{4-chloro-5-[(7S)-5-imino-2,7-dimethyl-5,6,7,8-tetrahydropyrido[4,3-d]pyrimidin-7-yl]thiophen-2-yl}-2-fluorobenzonitrile]
10 | 16.5 | 21.6 | C[C@@]1(c2sc(-c3cc(F)cc(-c4nnco4)c3)cc2Cl)Cc2ncncc2C(=N)N1 [Example 17, (7S)-7-{3-chloro-5-[3-fluoro-5-(1,3,4-oxadiazol-2-yl)phenyl]thiophen-2-yl}-7-methyl-7,8-dihydropyrido[4,3-d]pyrimidin-5(6H)-imine]
11 | 49.6 | 121 | C[C@@]1(c2cc(-c3cccc(-c4nnco4)c3)cs2)Cc2nc(C(F)(F)F)ncc2C(=N)N1 [Example 42, (7S)-7-methyl-7-{4-[3-(1,3,4-oxadiazol-2-yl)phenyl]thiophen-2-yl}-2-(trifluoromethyl)-7,8-dihydropyrido[4,3-d]pyrimidin-5(6H)-imine]
